Results as given in patent US4304833A, “Photographic products and processes employing triarylmethane compounds” (Polaroid Corporation, priority 1980, dated 1981).

Assays:
Type in all cases: physicochemical
[1] = decolorization of methanol solution added to aqueous 1 N KOH
[2] = transmission densities of image-receiving components before and after bleaching with aqueous 1 N KOH; conditions: for Transmission density After Bleaching B / Transmission density After Bleaching G / Transmission density After Bleaching R: 1 N KOH
Source text: (§1) Using appropriate solvents, samples of the dye compounds prepared in Examples 12, 13, 24, 26 and 39 were incorporated into the image-receiving layer 3 of image-receiving components comprising the structure set forth below by mixing a solution of each compound with a solution of the graft copolymer and coating this mixture on top of the timing layer to complete each of the image-receiving components.
A transparent 4 mil polyethylene terephthalate film base coated with, in succession:
1. as a polymeric acid layer, a mixture of about 9 parts of a partial butyl ester of polyethylene/maleic anhydride copolymer and 1 part of polyvinyl butyral coated at a coverage of about 2,500 mgs./ft.^2 ;
2. a timing layer containing a 14:1 ratio of a 60-30-4-6 tetrapolymer of butylacrylate, diacetone acrylamide, styrene and methacrylic acid and polyvinyl alcohol at a coverage of 500 mgs./ft.^2 ;
3. a graft copolymer of 4-vinylpyridine and vinylbenzyltrimethylammoniumchloride grafted on hydroxyethyl cellulose in a weight ratio of 2.2/1/2.2, respectively, coated at a coverage of 300 mgs./ft.^2 to provide an image-receiving layer and containing the selected dye compound at a coverage of 22 mgs./ft.^2.
Each of the image-receiving components containing the respective dye compounds were placed on a piece of gelatin coated Mylar, and the transmission densities for red (R), green (G) and blue (B) were recorded on a transmission densitometer. Then several drops of aqueous 1 N KOH were added to each gelatin sheet, and the image-receiving components were lightly pressed against the gelatin sheets to "bleach" the dye compounds. […]

[3] = bleaching rate (T 1/2) at pH=12 in buffer, visible spectrometer; conditions: for Wavelength (λmax-nm): pH=12 buffer; for T 1/2 (pH = 12): pH=12 buffer (aqueous), at λmax given
Description: The "bleaching" rates for the compounds of Examples 21, 23, 24, 39 and 41 were determined at pH=12 in terms of T 1/2. By T 1/2 is meant the time measured for one-half of the colored compound to decolorize. In making these determinations, a cell containing about 3 ml of pH=12 buffer (aqueous) was placed in a visible spectrometer. A sample of each compound was dissolved in methanol, and a small amount (less than 0.1 cc) of each solution was injected into the buffer. The optical densities were then recorded at a selected wavelength value to determine T 1/2.

[4] = decolorization of solution with aqueous 1N sodium hydroxide, then acidification; conditions: for color after decolorization with 1N NaOH and lowering to pH 1: methanol solution, aqueous hydrochloric acid to pH 1
Description: Also, samples of the compounds prepared in Examples 24, 26 and 39 above were dissolved in a small amount of methanol, and aqueous 1N sodium hydroxide was added to each solution to decolorize the compound.

[5] = absorption measured in ethanol
Description: (c) To a stirred slurry of the phthalol acyl derivative obtained in step b (7.4 g; 0.0155 M), sodium bicarbonate (6.51 g; 0.078 M) and water (200 ml) was added dropwise, a solution of 4.44 g (0.018 M) iodine in 175 ml methylene chloride. After a total of 20 minutes of stirring at room temperature, the aqueous layer was separated and neutralized by adding it to one liter of water containing 15 ml concentrated hydrochloric acid. The aqueous fraction was extracted with methylene, chloride, the organic layer was dried over sodium sulfate and the solvent was removed in vacuo. The dark orange residue was purified via medium pressure column chromatography (silica gel) methanol-methylene chloride; methanol content varied from 0.5-2%). The title compound was isolated as an orange glass. (λmax 424 nm, Epsilon 22,500 as measured in ethanol)

[6] = bleaching of TLC spot treated with 1 N NaOH
Description: (c) β-(methylsulfonyl)ethylchloroformate (196 mg) in 8 ml of toluene was added dropwise over 20 minutes to a refluxing solution of 317.3 mg of the compound prepared in step (b) in 15 ml toluene. The yellow mixture was allowed to stir under reflux for an additional hour after addition was complete. The reaction mixture was a deep yellow. […] The yellow spot representing the title compound when treated with 1 N NaOH produced a magenta color which bleached in approximately 5 seconds. The solvent was removed from the remaining reaction mixture under vacuum to give a yellow solid. Preparative TLC with 150 mg of solid in 4 ml tetrahydrofuran using 10% methanol/chloroform gave a yellow band which was separated and washed with acetone to yield approximately 5 mg of the title compound.

[7] = decolorization half-life of acetone solution in pH=12 buffer
Description: A sample of an acetone solution of the purified dye compound was added to fresh pH=12 buffer and the first half-life (T 1/2) and the second half-life (T 1/2) were measured giving the following results wherein OD refers to optical density. By T 1/2 is meant the time measured for one-half of said colored compound to decolorize.
The λmax of the pure title compound was 560 nm as measured in acetone--pH 12 buffer, and the T 1/2 values were measured at this wavelength.

[8] = bleaching of dye in image-receiving layer film with aqueous 1 N NaOH; conditions: dye in image-receiving layer 3
Source text: as §1

[9] = addition of aqueous base (1 N NaOH) to methanol and acetone solutions
Source text: The title compound gave yellow solutions in methanol and acetone.

[10] = 22 mgs./ft.^2, after 15 to 60 seconds
[11] = 22 mgs./ft.^2, coating stored for over 3 months
[12] = coating stored for over 3 months, bleaching time about 3 minutes
[13] = Experiment 1, pH=12 buffer, 560 nm
[14] = Experiment 2, pH=12 buffer, 560 nm

Row | SMILES | Transmission density Before Bleaching B ([2]; 22 mgs./ft.^2) | Transmission density Before Bleaching G ([2]; 22 mgs./ft.^2) | Transmission density Before Bleaching R ([2]; 22 mgs./ft.^2) | Transmission density After Bleaching B [2, 10] | Transmission density After Bleaching G [2, 10] | Transmission density After Bleaching R [2, 10] | Wavelength (λmax-nm) [3] [nm] | T 1/2 (pH = 12) [3] [sec.] | further results
1 | CC(=O)N(C)S(=O)(=O)c1ccccc1C(=C1C=C(C(O)(C(F)(F)F)C(F)(F)F)C(=O)c2ccccc21)c1cc2c3c(c1)CCCN3CCC2 [Example 9] | – | – | – | – | – | – | – | – | decolorization time [1]: approximately 5 seconds
2 | COC1=CC(=C(c2ccc(N3CCOCC3)cc2)c2ccccc2S(=O)(=O)N(C)C(=O)OCCS(C)(=O)=O)C=C(OC)C1=O [Example 12] | .45 | .31 | .00 | .00 | .01 | .02 | – | – | –
3 | COC1=CC(=C(c2cc3c4c(c2)CCCN4CCC3)c2ccccc2S(=O)(=O)N(C)C(=O)OCCS(C)(=O)=O)C=C(OC)C1=O [Example 13] | .09 | .32 | .21 | .00 | .01 | .01 | – | – | –
4 | COC1=CC(=C(c2cc(OC)c(O)c(OC)c2)c2ccccc2S(=O)(=O)N(C)C(=O)OCCS(C)(=O)=O)C=C(OC)C1=O [Example 21] | – | – | – | – | – | – | 640 | 2 | –
5 | COC1=CC(=C(c2cc(OC)c(O)c(OC)c2)c2ccccc2S(=O)(=O)N(C)C(C)=O)C=C(OC)C1=O [Example 23] | – | – | – | – | – | – | 640 | 158 | –
6 | CC1=CC(=C(c2cc(C)c(O)c(C)c2)c2ccccc2S(=O)(=O)N(C)C(=O)OCCS(C)(=O)=O)C=C(C)C1=O [Example 24] | .40 | .00 | .00 | .00 | .00 | .01 | 590 | 2 | color after decolorization with 1N NaOH and lowering to pH 1 [4]: remained colorless even at pH 1
7 | CN(C(=O)OCCS(C)(=O)=O)S(=O)(=O)c1ccccc1C(=C1C=C(C(O)(C(F)(F)F)C(F)(F)F)C(=O)c2ccccc21)c1cc2c3c(c1)CCCN3CCC2 [Example 26] | – | – | – | – | – | – | – | – | Transmission density Before Bleaching B [2, 11]: .05; Transmission density Before Bleaching G [2, 11]: .06; Transmission density Before Bleaching R [2, 11]: .19; Transmission density After Bleaching B [2, 12]: .02; Transmission density After Bleaching G [2, 12]: .00; Transmission density After Bleaching R [2, 12]: .02; color after decolorization with 1N NaOH and lowering to pH 1 [4]: remained colorless even at pH 1; decolorization (in words) [1]: decolorized substantially instantaneously
8 | COCC(=O)OCc1ccccc1C(=C1C=C(OC)C(=O)C(OC)=C1)c1cc(OC)c(O)c(OC)c1 [Example 39] | .59 | .03 | .01 | .01 | .00 | .00 | 640 | 44 | color after decolorization with 1N NaOH and lowering to pH 1 [4]: remained colorless even at pH 1
9 | COC1=CC(=C(c2cc(OC)c(O)c(OC)c2)c2ccccc2COC(=O)COc2ccccc2)C=C(OC)C1=O [Example 41] | – | – | – | – | – | – | 640 | 18 | –
10 | CC1=CC(=C(c2cc(C)c(O)c(C)c2)c2ccccc2COC(=O)COCC(=O)O)C=C(C)C1=O [Example 42] | – | – | – | – | – | – | – | – | λmax [5]: 424 nm; Epsilon ([5]; at λmax, in M-1 cm-1 (unit assumed)): 22,500
11 | CN(Cc1ccccc1C(=C1C=CC(=O)C=C1)c1ccc(O)cc1)C(=O)OCCS(C)(=O)=O [Example 44] | – | – | – | – | – | – | – | – | color after acidifying and again treating with aqueous 1N NaOH ([4]; after bleaching in 1N NaOH): remained colorless; time to complete bleaching ([4]; aqueous 1N NaOH): ≤ 5 s; time to bleach of magenta color [6]: approximately 5 seconds
12 | CN(C(=O)OCCS(C)(=O)=O)C(=O)c1ccccc1C(=C1C=CC(=O)C=C1)c1ccc(O)cc1 [Example 45] | – | – | – | – | – | – | – | – | 1st T 1/2 [7, 13]: 10.0 s; 2nd T 1/2 [7, 13]: 8.5 s; Final OD [7, 13]: 0.02; OD at 1.5 sec. [7, 13]: 2.00; 1st T 1/2 [7, 14]: 9.5 s; 2nd T 1/2 [7, 14]: 8.5 s; Final OD [7, 14]: 0.01; Initial OD (extrapolated) [7, 14]: 1.15; OD at 3.0 sec. [7, 14]: 0.90; λmax ([7]; acetone--pH 12 buffer): 560 nm; bleaching of film with aqueous 1 N NaOH [8]: quickly bleached; bleaching on addition of aqueous base [9]: rapidly and irreversibly bleached to colorless
